Data reported in patent US11331327B2, “Antibacterial use of halogenated salicylanilides” (UNION therapeutics A/S, priority 2014, dated 2022).
In brackets after ≈: the same amount, converted by molar mass. Read-outs that look alike come from different tables or passages of the source.

Test system: S. aureus clinical isolates and S. aureus ATCC 29213
Experiment: MIC assay according to CLSI criteria, Example 2, S. aureus strains
Format: cell-based, Staphylococcus aureus
Details: Staphylococcus aureus, read-out: MIC
Method: Strains were conserved in Luria Bertani (LB) Broth (S. aureus) or Brain Heart Infusion (BHI) (S. pyogenes) supplemented with glycerol 15% (v/v) at −80° C., and reactivated by isolation on LB (S. aureus) or BHI (S. pyogenes) agar plates. Strains were cultivated in Mueller Hinton (MH) Broth-cation adjusted (S. aureus) or BHI (S. pyogenes). All strains were cultivated aerobically (microaerobically for S. pyogenes strains) at 37° C.
Bacterial cultures were stopped in their exponential growth phase and plates were inoculated with the approximate concentration of 5×10^5 cells per well. Plates were incubated at 37° C. for 18 hours (S. aureus) or 24 hours (S. pyogenes).

SMILES: O=C(Nc1ccc([N+](=O)[O-])cc1Cl)c1cc(Cl)ccc1O [Niclosamide, 5-chloro-N-(2-chloro-4-nitrophenyl)-2-hydroxybenz-amide]
- MIC (ATCC 29213 / MRSA, strain MRSA 12): 0.5 µg/mL (≈ 1.53 µM)
- MIC (ATCC 29213 / MRSA, strain MRSA 13): 0.25 µg/mL (≈ 0.764 µM)
- MIC (ATCC 29213 / MRSA, strain MRSA 14): 0.25 µg/mL (≈ 0.764 µM)
- MIC (ATCC 29213 / MRSA, strain MRSA 15): 0.25 µg/mL (≈ 0.764 µM)
- MIC (ATCC 29213 / MRSA, strain MRSA 16): 0.25 µg/mL (≈ 0.764 µM)
- MIC (ATCC 29213 / MRSA, strain MRSA 17): 0.25 µg/mL (≈ 0.764 µM)
- MIC (ATCC 29213 / MRSA, strain MRSA 18): 0.25 µg/mL (≈ 0.764 µM)
- MIC (ATCC 29213 / MRSA, strain MRSA 19): 0.25 µg/mL (≈ 0.764 µM)
- MIC (ATCC 29213 / MRSA, strain MRSA 20): 0.25 µg/mL (≈ 0.764 µM)
- MIC (ATCC 29213 / MRSA, strain MRSA 21): 0.25 µg/mL (≈ 0.764 µM)
- MIC (ATCC 29213 / MRSA, strain MRSA 22): 0.25 µg/mL (≈ 0.764 µM)
- MIC (ATCC 29213 / MRSA, strain MRSA 23): 0.25 µg/mL (≈ 0.764 µM)
- MIC (ATCC 29213 / MRSA, strain MRSA 24): 0.25 µg/mL (≈ 0.764 µM)
- MIC (ATCC 29213 / MRSA, strain MRSA 25): 0.25 µg/mL (≈ 0.764 µM)
- MIC (ATCC 29213 / MRSA, strain MRSA 26): 0.5 µg/mL (≈ 1.53 µM)
- MIC (ATCC 29213 / MRSA, strain MRSA 27): 0.5 µg/mL (≈ 1.53 µM)
- MIC (ATCC 29213 / MRSA, strain MRSA 27b): 0.25 µg/mL (≈ 0.764 µM)
- MIC (ATCC 29213 / MRSA, strain MRSA 28): 0.25 µg/mL (≈ 0.764 µM)
- MIC (ATCC 29213 / MRSA, strain MRSA 29): 0.5 µg/mL (≈ 1.53 µM)
- MIC (ATCC 29213 / MRSA, strain MRSA 30): 0.25 µg/mL (≈ 0.764 µM)
- MIC (ATCC 29213 / MRSA, strain MRSA 31): 0.25 µg/mL (≈ 0.764 µM)
- MIC (ATCC 29213 / MRSA, strain MRSA 32): 0.25 µg/mL (≈ 0.764 µM)
- MIC (ATCC 29213 / MRSA, strain MRSA 33): 0.25 µg/mL (≈ 0.764 µM)
- MIC (ATCC 29213 / MRSA, strain MRSA 34): 0.25 µg/mL (≈ 0.764 µM)
- MIC (ATCC 29213 / MRSA, strain MRSA 35): 0.25 µg/mL (≈ 0.764 µM)
- MIC (ATCC 29213 / MRSA, strain MRSA 36): 0.25 µg/mL (≈ 0.764 µM)
- MIC (ATCC 29213 / MRSA, strain MRSA 37): 0.25 µg/mL (≈ 0.764 µM)
- MIC (ATCC 29213 / MRSA, strain MRSA 38): 0.25 µg/mL (≈ 0.764 µM)
- MIC (ATCC 29213 / MRSA, strain MRSA 39): 0.25 µg/mL (≈ 0.764 µM)
- MIC (ATCC 29213 / MRSA, strain MRSA 40): 0.25 µg/mL (≈ 0.764 µM)
- MIC (ATCC 29213 / MRSA, strain MRSA 41): 0.25 µg/mL (≈ 0.764 µM)
- MIC (ATCC 29213 / MRSA, strain MRSA 42): 0.25 µg/mL (≈ 0.764 µM)
- MIC (ATCC 29213 / MRSA, strain MRSA 43): 0.25 µg/mL (≈ 0.764 µM)
- MIC (ATCC 29213 / MRSA, strain MRSA 44): 0.25 µg/mL (≈ 0.764 µM)
- MIC (ATCC 29213 / MRSA, strain MRSA 45): 0.25 µg/mL (≈ 0.764 µM)
- MIC (ATCC 29213 / MRSA, strain MRSA 46): 0.25 µg/mL (≈ 0.764 µM)
- MIC (ATCC 29213 / MRSA, strain MRSA 47): 0.25 µg/mL (≈ 0.764 µM)
- MIC (ATCC 29213 / MRSA, strain MRSA 48): 0.25 µg/mL (≈ 0.764 µM)
- MIC (ATCC 29213 / MRSA, strain MRSA 49): 0.25 µg/mL (≈ 0.764 µM)
- MIC (ATCC 29213 / MRSA, strain MRSA 50): 0.25 µg/mL (≈ 0.764 µM)
- MIC (ATCC 29213 / MRSA, strain MRSA 51): 0.125 µg/mL (≈ 0.382 µM)
- MIC (ATCC 29213 / MRSA, strain MRSA 52): 0.25 µg/mL (≈ 0.764 µM)
- MIC (ATCC 29213 / MRSA, strain MRSA 53): 0.25 µg/mL (≈ 0.764 µM)
- MIC (ATCC 29213 / MRSA, strain MRSA 54): 0.25 µg/mL (≈ 0.764 µM)
- MIC (ATCC 29213 / MRSA, strain MRSA 55): 0.25 µg/mL (≈ 0.764 µM)
- MIC (ATCC 29213 / MRSA, strain MRSA 56): 0.25 µg/mL (≈ 0.764 µM)
- MIC (ATCC 29213 / MRSA, strain MRSA 57): 0.25 µg/mL (≈ 0.764 µM)
- MIC (ATCC 29213 / MRSA, strain MRSA 58): 0.25 µg/mL (≈ 0.764 µM)
- MIC (ATCC 29213 / MRSA, strain MRSA 59): 0.25 µg/mL (≈ 0.764 µM)
- MIC (ATCC 29213 / MRSA, strain MRSA 60): 0.25 µg/mL (≈ 0.764 µM)
- MIC (ATCC 29213 / MRSA, strain MRSA 61): 0.25 µg/mL (≈ 0.764 µM)
- MIC (ATCC 29213 / MRSA, strain MRSA 62): 0.25 µg/mL (≈ 0.764 µM)
- MIC (ATCC 29213 / MRSA, strain MRSA 63): 0.25 µg/mL (≈ 0.764 µM)
- MIC (ATCC 29213 / MRSA, strain MRSA 64): 0.25 µg/mL (≈ 0.764 µM)
- MIC (ATCC 29213 / MRSA, strain MRSA 65): 0.25 µg/mL (≈ 0.764 µM)
- MIC (ATCC 29213 / MRSA, strain MRSA 66): 0.25 µg/mL (≈ 0.764 µM)
- MIC (ATCC 29213 / MRSA, strain MRSA 67): 0.25 µg/mL (≈ 0.764 µM)
- MIC (ATCC 29213 / MRSA, strain MRSA 68): 0.25 µg/mL (≈ 0.764 µM)
- MIC (ATCC 29213 / MRSA, strain MRSA 69): 0.25 µg/mL (≈ 0.764 µM)
- MIC (ATCC 29213 / MRSA, strain MRSA 70): 0.125 µg/mL (≈ 0.382 µM)
- MIC (ATCC 29213 / MRSA, strain MRSA 71): 0.25 µg/mL (≈ 0.764 µM)
- MIC (ATCC 29213 / MRSA, strain MRSA 72): 0.25 µg/mL (≈ 0.764 µM)
- MIC (ATCC 29213 / MRSA, strain MRSA 73): 0.5 µg/mL (≈ 1.53 µM)
- MIC (ATCC 29213 / MRSA, strain MRSA 74): 0.25 µg/mL (≈ 0.764 µM)
- MIC (ATCC 29213 / MRSA, strain MRSA 75): 0.5 µg/mL (≈ 1.53 µM)
- MIC (ATCC 29213 / MRSA, strain MRSA 76): 0.25 µg/mL (≈ 0.764 µM)
- MIC (ATCC 29213 / MRSA, strain MRSA 77): 0.25 µg/mL (≈ 0.764 µM)
- MIC (ATCC 29213 / MRSA, strain MRSA 78): 0.5 µg/mL (≈ 1.53 µM)
- MIC (ATCC 29213 / MRSA, strain MRSA 79): 0.25 µg/mL (≈ 0.764 µM)
- MIC (ATCC 29213 / MRSA, strain MRSA 80): 0.5 µg/mL (≈ 1.53 µM)
- MIC (ATCC 29213 / MRSA, strain MRSA 81): 0.5 µg/mL (≈ 1.53 µM)
- MIC (ATCC 29213 / MRSA, strain MRSA 82): 0.25 µg/mL (≈ 0.764 µM)
- MIC (ATCC 29213 / MRSA, strain MRSA 83): 0.5 µg/mL (≈ 1.53 µM)
- MIC (ATCC 29213 / MRSA, strain MRSA 84): 0.25 µg/mL (≈ 0.764 µM)
- MIC (ATCC 29213 / MRSA, strain MRSA 85): 0.5 µg/mL (≈ 1.53 µM)
- MIC (ATCC 29213 / MRSA, strain MRSA 86): 0.25 µg/mL (≈ 0.764 µM)
- MIC (ATCC 29213 / MRSA, strain MRSA 87): 0.25 µg/mL (≈ 0.764 µM)
- MIC (ATCC 29213 / MRSA, strain MRSA 88): 0.25 µg/mL (≈ 0.764 µM)
- MIC (ATCC 29213 / MRSA, strain MRSA 89): 0.5 µg/mL (≈ 1.53 µM)
- MIC (ATCC 29213 / MRSA, strain MRSA 90): 0.5 µg/mL (≈ 1.53 µM)
- MIC (ATCC 29213 / MRSA, strain MRSA 91): 0.25 µg/mL (≈ 0.764 µM)
- MIC (ATCC 29213 / MRSA, strain MRSA 92): 0.25 µg/mL (≈ 0.764 µM)
- MIC (ATCC 29213 / MRSA, strain MRSA 93): 0.25 µg/mL (≈ 0.764 µM)
- MIC (ATCC 29213 / MRSA, strain MRSA 94): 0.25 µg/mL (≈ 0.764 µM)
- MIC (ATCC 29213 / MRSA, strain MRSA 95): 0.25 µg/mL (≈ 0.764 µM)
- MIC (ATCC 29213 / MRSA, strain MRSA 96): 0.25 µg/mL (≈ 0.764 µM)
- MIC (ATCC 29213 / MRSA, strain MRSA 97): 0.25 µg/mL (≈ 0.764 µM)
- MIC (ATCC 29213 / MRSA, strain MRSA 98): 0.5 µg/mL (≈ 1.53 µM)
- MIC (ATCC 29213 / MRSA, strain MRSA 99): 0.25 µg/mL (≈ 0.764 µM)
- MIC (ATCC 29213 / MRSA, strain MRSA 100): 0.25 µg/mL (≈ 0.764 µM)
- MIC (ATCC 29213 / MRSA, strain MRSA 101): 0.5 µg/mL (≈ 1.53 µM)
- MIC (ATCC 29213 / MRSA, strain MRSA 102): 0.25 µg/mL (≈ 0.764 µM)
- MIC (ATCC 29213 / MRSA, strain MRSA 103): 0.25 µg/mL (≈ 0.764 µM)
- MIC (ATCC 29213 / MRSA, strain MRSA 104): 0.5 µg/mL (≈ 1.53 µM)
- MIC (ATCC 29213 / MRSA, strain MRSA 105): 0.25 µg/mL (≈ 0.764 µM)
- MIC (ATCC 29213 / MRSA, strain MRSA 106): 0.25 µg/mL (≈ 0.764 µM)
- MIC (ATCC 29213 / MRSA, strain MRSA 107): 0.25 µg/mL (≈ 0.764 µM)
- MIC (ATCC 29213 / MRSA, strain MRSA 108): 0.25 µg/mL (≈ 0.764 µM)
- MIC (ATCC 29213 / MRSA, strain MRSA 109): 0.25 µg/mL (≈ 0.764 µM)
- MIC (ATCC 29213 / MRSA, strain MRSA 110): 0.25 µg/mL (≈ 0.764 µM)
- MIC (ATCC 29213 / MRSA, strain MRSA 111): 0.5 µg/mL (≈ 1.53 µM)
- MIC (ATCC 29213 / MRSA, strain MRSA 112): 0.25 µg/mL (≈ 0.764 µM)
- MIC (ATCC 29213 / MRSA, strain MRSA 113): 0.25 µg/mL (≈ 0.764 µM)
- MIC (ATCC 29213 / MSSA, strain MSSA 01): 0.5 µg/mL (≈ 1.53 µM)
- MIC (ATCC 29213 / MSSA, strain MSSA 02): 0.25 µg/mL (≈ 0.764 µM)
- MIC (ATCC 29213 / NEWMAN, strain Newman): 0.25 µg/mL (≈ 0.764 µM)
